Experimental data published in patent US9539256B2 (THE BOARD OF REGENTS OF THE UNIVERSITY OF TEXAS SYSTEM, priority 2012, dated 2017).
“Also recorded” adds a separate entry of the source.

Assays:
EPAC2 [1] = target: T1, EPAC2 (Mus musculus, UniProt Q9EQZ6); experiment: 8-NBD-cAMP competition binding to EPAC2
T1 sequence (Q9EQZ6 1-1011): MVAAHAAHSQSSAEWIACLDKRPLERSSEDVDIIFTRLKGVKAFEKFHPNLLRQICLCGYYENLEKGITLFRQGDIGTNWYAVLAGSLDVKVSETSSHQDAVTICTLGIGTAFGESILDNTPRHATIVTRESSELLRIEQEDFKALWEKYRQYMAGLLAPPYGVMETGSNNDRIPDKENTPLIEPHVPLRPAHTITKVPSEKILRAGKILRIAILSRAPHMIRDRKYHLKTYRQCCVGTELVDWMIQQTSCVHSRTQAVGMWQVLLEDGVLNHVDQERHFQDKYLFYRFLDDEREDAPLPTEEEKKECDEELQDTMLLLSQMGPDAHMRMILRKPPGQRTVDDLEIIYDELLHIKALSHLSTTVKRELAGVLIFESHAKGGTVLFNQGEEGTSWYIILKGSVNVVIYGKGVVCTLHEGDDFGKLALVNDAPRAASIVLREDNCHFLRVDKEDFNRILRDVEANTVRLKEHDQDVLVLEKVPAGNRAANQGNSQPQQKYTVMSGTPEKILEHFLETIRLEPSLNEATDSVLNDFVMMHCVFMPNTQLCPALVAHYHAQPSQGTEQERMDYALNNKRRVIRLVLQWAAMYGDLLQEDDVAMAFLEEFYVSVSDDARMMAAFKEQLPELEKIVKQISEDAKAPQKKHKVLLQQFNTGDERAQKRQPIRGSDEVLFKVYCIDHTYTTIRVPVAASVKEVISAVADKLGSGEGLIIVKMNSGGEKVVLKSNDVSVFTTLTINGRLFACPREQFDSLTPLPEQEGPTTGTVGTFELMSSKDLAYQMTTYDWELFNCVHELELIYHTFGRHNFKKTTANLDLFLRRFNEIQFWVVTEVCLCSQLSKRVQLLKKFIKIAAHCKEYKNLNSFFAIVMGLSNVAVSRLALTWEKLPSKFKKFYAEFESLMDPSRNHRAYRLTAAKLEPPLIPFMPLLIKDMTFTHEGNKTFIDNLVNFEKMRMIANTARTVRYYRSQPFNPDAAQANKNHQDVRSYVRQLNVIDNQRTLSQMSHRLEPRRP
Description: Primary screen is performed in black 96-well or 384-well microplates. As an example, 50 nM EPAC2 solution is prepared in 20 mM Tris buffer, pH 7.5, containing 150 mM NaCl, 1 mM EDTA, and 1 mM […]. […] Sample is dispensed into plate and test compounds added from 96-well mother plates. […] Fluorescence intensity signal from 8-NBD was recorded at room temperature (rt) before and after tested compounds are added using SpectaMaxM2 microplate reader (Molecular Devices, Silicon Valley, Calif., USA) with excitation/emission wavelengths set at 470/540 nm.

type II PKA holoenzyme = experiment: PKA counter screening, type II holoenzyme; type: biochemical; details: 25 μM compound
Description: Kinase activity of the type I and II PKA holoenzyme are measured spectrophotometrically in a 96-well plate with a coupled enzyme assay as described previously (Cook et al. (1982) Biochemistry 21: 5794-5799). In this assay, the formation of ADP is coupled to the oxidation of NADH by the pyruvate kinase/lactate dehydrogenase reactions so the reaction rate can be determined by following the oxidation of NADH, reflected by a decrease in absorbance at 340 nm. […] Reactions are pre-equilibrated at room temperature and initiated by adding the Kemptide substrate (final concentration 0.26 mM).

EPAC2 [2] = target: T2, EPAC2 (Homo sapiens, UniProt Q8WZA2); experiment: Rap1 activation assay in HEK293/EPAC2 cells; type: cell-based; details: HEK293/EPAC2 cells; pre-treatment with 10 μM compound
T2 construct: HEK293 cells that ectopically express full-length EPAC2 proteins; expressed in transfected cells; host or cells: HEK293
T2 sequence (Q8WZA2 whole entry, species assumed): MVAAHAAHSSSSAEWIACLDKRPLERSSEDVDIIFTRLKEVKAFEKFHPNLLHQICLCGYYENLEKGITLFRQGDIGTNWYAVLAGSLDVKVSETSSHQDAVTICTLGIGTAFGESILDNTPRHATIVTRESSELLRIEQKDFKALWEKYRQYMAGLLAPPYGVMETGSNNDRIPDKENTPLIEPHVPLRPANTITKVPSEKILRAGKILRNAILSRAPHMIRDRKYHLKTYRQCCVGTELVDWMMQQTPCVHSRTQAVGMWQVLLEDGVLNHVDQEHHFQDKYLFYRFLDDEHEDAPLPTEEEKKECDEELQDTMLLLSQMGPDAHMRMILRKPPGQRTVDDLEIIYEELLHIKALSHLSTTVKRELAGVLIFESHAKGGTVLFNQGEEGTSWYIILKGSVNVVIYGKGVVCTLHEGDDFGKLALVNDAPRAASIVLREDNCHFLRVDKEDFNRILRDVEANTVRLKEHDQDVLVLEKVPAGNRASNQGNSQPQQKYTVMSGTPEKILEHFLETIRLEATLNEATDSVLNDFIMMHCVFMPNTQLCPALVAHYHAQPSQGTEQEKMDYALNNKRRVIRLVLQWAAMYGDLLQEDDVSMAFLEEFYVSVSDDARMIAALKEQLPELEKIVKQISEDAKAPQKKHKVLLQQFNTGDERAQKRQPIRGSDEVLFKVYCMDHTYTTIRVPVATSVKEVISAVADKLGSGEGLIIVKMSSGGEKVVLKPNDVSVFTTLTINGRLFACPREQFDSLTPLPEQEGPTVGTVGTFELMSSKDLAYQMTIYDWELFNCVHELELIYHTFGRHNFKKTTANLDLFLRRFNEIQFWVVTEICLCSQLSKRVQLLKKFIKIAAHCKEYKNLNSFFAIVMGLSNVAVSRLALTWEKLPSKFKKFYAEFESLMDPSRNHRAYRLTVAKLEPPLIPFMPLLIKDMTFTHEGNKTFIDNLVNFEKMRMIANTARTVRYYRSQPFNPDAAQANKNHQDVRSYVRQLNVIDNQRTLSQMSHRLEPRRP
Description: FIGS. 9A-9B. Effects of EPAC2-specific antagonists on 007-AM-mediated cellular activation of Rap1. […] GTP-bound Rap1 (Rap1GTP) obtained by a Ral-GDSRBD-GST pull-down assay and total cellular Rap1 were detected by immunoblotting with Rap1-specific antibody. […] At test was used to determine statistical significance (*P<0.05).
Cellular activation of Rap1 was determined by pull-down of lysates derived from human vascular smooth muscle cell and HEK293 cells stably expressing EPAC1 or EPAC2 employing Ral-GDS-RBD-GST affinity beads as described earlier (Mei and Cheng (2005) Molecular Biosystems 1: 325-331).

[3] = tested on: CD4+CD25− (Tconv) proliferation in the presence Tregs; experiment: In vitro Treg suppression assay of Tconv proliferation; type: cell-based, mice; details: assay repeated in the presence of ESI-09; compared with Epac1 KO outcome
From the text: The suppressive potency of WT and Epac1 KO Tregs was examined using an in vitro assay that examines CD4+CD25− (Tconv) proliferation in the presence Tregs. Epac1 KO Tconv and WT Tconv proliferated at the same rate when cultured alone. The addition of WT Tregs suppressed the proliferation of both cell populations to the same extent, while the addition of Epac1 KO Tregs suppressed the proliferation of Epac1 KO Tconv to a much lesser degree than it did WT Tconv's.

R. australia = experiment: Lethal-dose R. australia infection of mice; type: in vivo; details: WT C57BL/6 mice, 10 mg/kg, IP daily
Description: FIG. 21. ESI-09 treatment protects mice from lethal-dose infection of R. australia. WT C57BL/6 mice were treated with vehicle or ESI-09 (10 mg/kg, IP) daily. Five days after the treatment, mice were challenged with lethal dose of R. australia and continued ESI-09 daily treatment. Severity of illness and survival rate were monitored.
To test if EPAC inhibitors are capable of protecting mice from lethal-dose infection of R. australia. WT C57BL/6 mice were treated with vehicle or ESI-09 (10 mg/kg, IP) daily. Five days after the treatment, mice were challenged with lethal dose of R. australia and continued ESI-09 daily treatment.

Which “Relative Potency (RA)” value (EPAC2 [1]; RA = IC50, cAMP/IC50, compound) does the source give for `CC(C)(C)c1cc(C(=O)C(C#N)=NNc2cccc(Cl)c2)no1` [ESI-09, 3-(5-Tert-Butyl-Isoxazol-3-Yl)-2-[(3-Chlorophenyl)-Hydrazono]-3-Oxo-Propionitrile] here?
The value was 3.9.

And the IC50 (EPAC2 [1]; read-out: Apparent IC50, competing with 8-NBD-cAMP in binding EPAC2)?
The IC50 was 10 ± 1.2 µM.

What about the “cAMP-induced type II PKA holoenzyme activation” value (type II PKA holoenzyme) of the same compound?
The value was “did not significantly alter”.

And the “007-AM induced Rap1 activation” value (EPAC2 [2])?
Its value is “significant reduction”.

What about the “Tregs mediated suppression of Tconv” value [3] of the same compound?
The value was “the outcome was similar”.

And the “protection of R. australia infection” value (R. australia)?
Its value is “striking protection; also recorded: protects”.

And the “treatment group showing sign of sickness” value (R. australia)?
Its value is 10%.
